Data set [1] relates to C1-3 cell line (calcitonin secretion). Description: Calcitonin Secretion/RIA Assay. To be noted: active if >2.5; for fold induction at 30 µM: Homo sapiens, C13, ratio of calcitonin secretion vs untreated control; for Secretion Ratio: 30 μM, ratio of calcitonin secretion vs untreated control. The format is cell-based, human. As for the experimental part: Cell Line: C1-3 (Parent Cell Line: TT-medullary thyroid carcinoma),
Reagent A--(Anti-Calcitonin)
Regent C--(Anti-Goat Precipitant)
Regent D--(Zero Standard).
Reagents E-I--(Calcitonin Standards)
Reagents J-K (Calcitonin Controls: Level and Level 2)
1. Glass tubes were labeled to include Total Count (TC), Nonspecific Binding (NSB), Maximum Binding (Bo), Standards, Controls and Patient Sera in duplicate.
2. […] of Standard Zero (Reagent D) was added to tubes 3 through 6 (NSB and Bo).
3. […] of Standards* (Reagents E-1) was added to tubes 7-16 as follows:
4. […] of Patient Serum 1 was added to tubes 21 and 22, Patient Serum 2 was added to tubes 23 and 24, etc.
5. […] of Reagent L (NSB Buffer) was added to tubes 3 and 4.
6. […] of Reagent A (Anti-Calcitonin) was added to all tubes except tubes 1 & 2 (TC) and tube 3 & 4 (NSB). All tubes were vortexed, covered with parafilm or foil and incubated 44±6 hours at 2-8° C.
7. […] All tubes were vortexed, covered with parafilm or foil and incubated 22±3 hours at 2-8° C.
8. Reagent C (Anti-Goat Precipitant) was mixed gently but thoroughly by inverting the vial several times before use. 1 mL Reagent C was added to all tubes except 1 and 2 (TC). Tubes were vortexed and incubated 20 minutes at room temperature.
9. All tubes were centrifuged at 1300-1500×g for 15 minutes at 2-8° C.
10. Supernatant was decanted immediately after centrifugation taking care to leave the precipitate intact.
11. Tubes were counted 4 minutes or longer.
Secretion Ratio: Stimulation of calcitonin secretion is expressed as a ratio of secretion activity in the presence of test compound compared to the secretion activity in the untreated control: [formula]

The nature of data set [2]: Serum Calcium/Plasma Calcitonin Determination Assay (acute/subacute, rats). It counts as in vivo, Sprague Dawley rats. The following applies: subacute, sc, n=8, 30 mg/kg/2x/day; for % Decrease Serum Calcium: Examples 4 and 7 marked * (p<0.05 vs. vehicle); for % Increase Plasma Calcitonin: Examples 5 and 7 marked * (p<0.05 vs. vehicle). As for the experimental part:
This assay was used to evaluate the ability of a test compound to decrease serum calcium and increase plasma calcitonin in rats using either an acute or sub-acute protocol. […]
Subacute Administration Study: After 72 hours acclimatization, young male or female Sprague Dawley rats weighing 170-250 g were randomly divided in groups of 8. The rats were fasted and given deionized H2 O 18 hours prior to the start of the study. The purpose of the fasting is to reduce the variability in serum calcium and plasma calcitonin levels. Each rat was weighed.
C-G Test Compounds 30 mg/kg/2x/day ip or sc
^b In vehicle and test compound groups, the treatments that the
Measurements: Body weight, serum calcium levels and plasma calcitonin levels.
Data Evaluations: The difference in serum calcium and plasma calcitonin between a treatment group and the vehicle group was determined using a one-way analysis of variance with Dunnett's test, or other multiple comparison methods. Compounds were designated active if .rho.<0.05 vs. vehicle value.

The subject of a further data set is PDE-IV. Description: Inhibition of Phosphodiesterase IV (PDE-IV) isolated from human U937 cells. The following applies: U937 cell PDE-IV, 1 μM [3H]-cAMP, 37° C., test compound 0.001 μM to 10 μM. The format is biochemical. As to the method: This assay was used to biochemically assess the ability of a test compound to inhibit PDE-IV isolated from a U937 cell line, where PDE-IV refers to the cGMP-insensitive, cAMP-selective PDE.
Cell Culture: U937 cells were grown in RPMI 1640 medium supplemented with 10% heat-inactivated fetal calf serum and Penicillin/Streptomycin (100 units/100 μg per mL) in a humidified 5% CO2 atmosphere at 37° C. Starter cells were maintained in continuous logarithmic growth by seeding them in 75 cm^2 vented tissue culture flasks at a concentration of 3×10^4 cells/mL and passing them every 3-4 days when the cells reached approximately 8×10^5 cells/mL. For experiments, 3-4 day starter cells were seeded in 225 cm^2 flasks at 1×10^5 cells/mL and harvested 3-4 days later at approx. 6×10^5 cells/mL.
Isolation of PDE-IV: U937 cells were activated with 10 μM dibutyryl cAMP for a period of 4 hours (to up-regulate PDE-IV) and then harvested by centrifugation at 1200×g for 10 min in 250 mL conical centrifuge tubes. The pellet from each 200 mL flask was resuspended in 5 mL buffer A [10 mM Tris-HCl, 5 mM MgCl2, 4 mM EGTA, 5 mM 2-mercaptoethanol, 1 μM leupeptin, 1 μM pepstatin A, and 5 μM phenylmethyl sulfonyl fluoride (PMSF) (pH 7.8)], and the cells were lysed using 3 cycles of freezing (3 min in dry ice/acetone) followed by thawing (warm water). […] To determine which families of PDEs were present, fractions may be assayed for hydrolytic activity with 1 μM [^3 H]-cAMP or 1 μM [^3 H]-cGMP. Additionally, 1 μM [^3 H]-cAMP assays were conducted in the presence of 10 μM rolipram, 10 μM cGMP, or calmodulin (1 unit/0.4 mL plus 10 μM CaCl2).
When prepared in this manner, approximately 80% of total cAMP PDE activity is eluted by Buffer B containing 0.7 M sodium acetate. This PDE activity consists of>90% PDE-IV (as evidenced by its susceptibility to inhibition by rolipram.
PDE assay: PDE activity was measured using a modification of the radioisotope procedure previously described by Thompson et al. (Thompson, W. J., Terasaki, W. L., Epstein, P. M. and Strada, S. J. Adv, Cyclic Nucleotide Res. 1979, 10, 69). Reaction mixtures (0.4 mL) contain 40 mM Tris-HCl (pH 7.8), 4 mM 2-mercaptoethanol, 5 mM MgCl2, 0.1 μM leupeptin, 0.1 μM pepstatin A, 0.1 μM PMSF, 1 μM [3H]-cAMP or 1 μM [^3 H]-cGMP (~200,000 DPM), and enzyme to initiate the reaction. ^3 H-cAMP substrate was prepared as follows: A stock solution of ^3 H-cyclic nucleotide (1000 μCi/mL) was diluted 1:10 in 50% EtOH. 200 μl of this diluted stock solution was added to a cold (unlabeled) cyclic nucleotide solution, made at a concentration of 4 μM. 100 μl of this solution was used per assay tube to achieve a final concentration of 1 μM cyclic nucleotide per assay tube (200,000 DPM). Enzyme activity was determined at 37° C. Reactions were terminated by boiling, incubating with snake venom, and cooling as previously described (Thompson et al., 1979). The reaction mixture was applied to a (0.8×8.5 cm) column containing 0.4 g Dowex I-X8 affinity resin; reaction tubes were rinsed with 0.5 mL of methanol; and this, along with an extra 1 mL of methanol, was applied to the column to elute the ^3 H-reaction products. After all liquid has passed through the column, the column was plunged with a 12 cc syringe plunger. Each column's eluate was collected in a 20 mL scintillation vial containing 10 mL aquasol-2 and counted by scintillation spectrophotometry. [^3 H]-adenosine or [^3 H]-guanosine recovery was corrected for background DPM determined in the absence of enzyme. The amount of enzyme and duration of assay were adjusted to ensure that less than 25% of the substrate was consumed under these conditions.
Measurements: Inhibition by a test compound was measured as a percent reduction of total PDE activity, and calculated as follows: [formula] where A is the PDE activity (mean DPM-background DPM) in the presence of test compound, and B is the total PDE-IV activity (mean DPM-background DPM) in the absence of test compound. […]

Data set [3] deals with promoter region of the human calcitonin gene (luciferase reporter, C1-3 cells). Description: Calcitonin/Luciferase Reporter Gene Expression Assay. The following applies: Homo sapiens, C13, 12 h, read-out: TAR (transcription activation ratio).
Experimental: (§1) This assay was used to determine the ability of a compound to stimulate transcription of a luciferase reporter gene regulated by 3 kb of the promoter region of the human calcitonin gene.
(§2) C1-3 cells were plated at a density of 6,500-7,500 cells per well in a 96-plate microtiter plate. Twenty-four to forty-eight hours later, compounds were added to the wells in triplicate. Compounds were tested at a concentration of 10 μg/mL in 0.5% DMSO.
(§3) The production of light is measured on a luminometer.
(§4) TAR Ratio: Stimulation of calcitonin promoter-dependent transcription is expressed as a ratio of luciferase activity (LUCI) in the presence of test compound compared to the LUCI activity in the untreated control: [formula]
For data set [4] the test system is unchanged. The following applies: c1-3 tt cells, 12 h, 30 µM.
Experimental: as §1, §2, §3, §4

With `CCCCn1c(=O)c2nn(S(=O)(=O)c3ccc4ccccc4c3)cc2n(CCCC)c1=O` [Example 4, 4,6-Dibutyl-2-(2-naphthalenesulfonyl)-2,4-dihydro-pyrazolo[4,3-d]pyrimidine-5,7-dione], the fold induction at 30 µM in data set [1] was 4.91. Further, in data set [2], the “% Decrease Serum Calcium” value is 5% and the “% Increase Plasma Calcitonin” value was found to be 8%. In the data set on PDE-IV, the “% Inhibition of PDE IV (normalized to rolipram)” value was found to be 33%. The fold induction at 30 µM in data set [3] was 1.75.

Regarding `CCCCn1c(=O)c2cn(S(=O)(=O)c3c(C)nn(C)c3Cl)nc2n(CCCC)c1=O` [Example 7], in data set [1], the fold induction at 30 µM came to 2.92. In data set [2], the “% Decrease Serum Calcium” value amounted to 4% and the “% Increase Plasma Calcitonin” value came out at 80%. Further, the fold induction at 30 µM in data set [3] was 2.13.

On to “4,6-Dibutyl-1-ethanesulfonyl-1,4-dihydro-pyrazolo[4,3-d]pyrimidine-5,7-dion [Example 10]”, for which the “Secretion Ratio” value in data set [1] is listed as 2.90. Besides, in the data set on PDE-IV, the “% Inhibition of PDE IV (normalized to rolipram)” value turned out to be 45%. In data set [4], the “TAR (transcription activation ratio)” value worked out at 1.43.

Turning to “4,6-Dibutyl-1-(3,5-dimethyl-isoxazole-4-sulfonyl)-1,4-dihydro-pyrazolo[4,3- d]pyrimidine-5,7-dione [Example 8]”, in data set [1], the “Secretion Ratio” value is 3.23. For the same compound, in the data set with PDE-IV, the “% Inhibition of PDE IV (normalized to rolipram)” value is recorded as 26%. Besides, the “TAR (transcription activation ratio)” value in data set [4] is reported as 2.14.

As for `CCCCn1c(=O)c2nn(S(=O)(=O)c3cc(Cl)c(Cl)s3)cc2n(CCCC)c1=O` [Example 6, 4,6-Dibutyl-2-(4,5-dichloro-thiophene-2-sulfonyl)-2,4-dihydro-pyrazolo[4,3-d]pyrimidine-5,7-dione], the fold induction at 30 µM in data set [1] was 3.4. In data set [2], the “% Decrease Serum Calcium” value was found to be 0% and the “% Increase Plasma Calcitonin” value came to 12%. Further, in the data set with PDE-IV, the “% Inhibition of PDE IV (normalized to rolipram)” value is listed as 100%. The fold induction at 30 µM in data set [3] was 1.69.

On to `CCCCn1c(=O)c2nn(S(=O)(=O)c3ccc(C(C)(C)C)cc3)cc2n(CCCC)c1=O` [Example 5, 4,6-Dibutyl-2-(4-tert-butyl-benzenesulfonyl)-2,4-dihydro-pyrazolo[4,3-d]pyrimidine-5,7-dione], for which the fold induction at 30 µM came to 4.5 in data set [1] and 2.27 in data set [3]. For the same compound, in data set [2], the “% Decrease Serum Calcium” value came out at 1%. The “% Increase Plasma Calcitonin” value in data set [2] stood at 101%. Also, the “% Inhibition of PDE IV (normalized to rolipram)” value in the data set with PDE-IV was 63%.

With `CCCCn1c(=O)n(C)c(=O)c2nn(S(=O)(=O)CCCCl)cc21` [Example 18, 4-Butyl-2-(3-chloro-propane-1-sulfonyl)-6-methyl-2,4-dihydro-pyrazolo[4,3-d]pyrimidine-5,7-dione], the figures for the fold induction at 30 µM in data set [1] and in data set [3] were 1.38 and 1.1, respectively. The “% Inhibition of PDE IV (normalized to rolipram)” value in the data set on PDE-IV was determined as 34%.

Consider `CCCCn1c(=O)c2cn(S(=O)(=O)c3ccc(OC(F)(F)F)cc3)nc2n(CCCC)c1=O` [Example 14, 5,7-Dibutyl-2-(4-trifluoromethoxy-benzenesulfonyl)-2,7-dihydro-pyrazolo[3,4-d]pyrimidine-4,6-dione], for which the fold induction at 30 µM in data set [1] amounted to 4.29; in data set [3], 2.22. Besides, the “% Inhibition of PDE IV (normalized to rolipram)” value with PDE-IV came out at 92%.

The values above are taken from US6133273A, “Pyrazolopyrimidine-2,4-dione sulfonamides” (American Home Products Corporation, priority 1999, dated 2000).
